The test system of assay [1] is 5-hydroxytryptamine receptor 2A (Oryctolagus cuniculus). Kind of assay: Binding affinity for 5-hydroxytryptamine 2A receptor of rabbit aorta ring preparations.
The subject of assay [2] is 5-hydroxytryptamine receptor 1B (Oryctolagus cuniculus). The assay is described as follows: Binding affinity against vascular 5-hydroxytryptamine 1B receptor, measured using ring preparations of rabbit saphenous vein (RbSV).
The test system of assay [3] is Adrenergic receptor alpha-1 (Oryctolagus cuniculus). Kind of assay: Alpha-1 adrenergic receptor affinity using ring preparations of rabbit thoracic aorta (RbTA).
Assay [4] deals with T1, 5-hydroxytryptamine receptor 2C (Rattus norvegicus, UniProt P08909).
T1 sequence (P08909 whole entry): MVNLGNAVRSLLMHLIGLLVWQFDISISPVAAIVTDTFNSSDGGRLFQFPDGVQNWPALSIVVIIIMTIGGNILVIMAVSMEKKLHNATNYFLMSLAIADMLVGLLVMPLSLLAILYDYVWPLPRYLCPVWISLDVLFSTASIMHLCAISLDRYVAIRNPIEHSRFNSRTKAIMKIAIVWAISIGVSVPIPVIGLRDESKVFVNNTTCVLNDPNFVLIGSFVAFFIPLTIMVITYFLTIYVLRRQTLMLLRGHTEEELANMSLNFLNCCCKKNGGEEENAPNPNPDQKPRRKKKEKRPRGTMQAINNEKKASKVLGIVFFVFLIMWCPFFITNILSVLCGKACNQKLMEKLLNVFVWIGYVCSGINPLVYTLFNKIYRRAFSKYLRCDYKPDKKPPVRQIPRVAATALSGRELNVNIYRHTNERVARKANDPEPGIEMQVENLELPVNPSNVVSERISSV
Kind of assay: Binding affinity against 5-hydroxytryptamine 2C receptor in rat cortex homogenates. It is filed as tissue-based.

The target in assay [5] is T2, 5-hydroxytryptamine receptor 1A (Rattus norvegicus, UniProt P19327).
T2 sequence (P19327 whole entry): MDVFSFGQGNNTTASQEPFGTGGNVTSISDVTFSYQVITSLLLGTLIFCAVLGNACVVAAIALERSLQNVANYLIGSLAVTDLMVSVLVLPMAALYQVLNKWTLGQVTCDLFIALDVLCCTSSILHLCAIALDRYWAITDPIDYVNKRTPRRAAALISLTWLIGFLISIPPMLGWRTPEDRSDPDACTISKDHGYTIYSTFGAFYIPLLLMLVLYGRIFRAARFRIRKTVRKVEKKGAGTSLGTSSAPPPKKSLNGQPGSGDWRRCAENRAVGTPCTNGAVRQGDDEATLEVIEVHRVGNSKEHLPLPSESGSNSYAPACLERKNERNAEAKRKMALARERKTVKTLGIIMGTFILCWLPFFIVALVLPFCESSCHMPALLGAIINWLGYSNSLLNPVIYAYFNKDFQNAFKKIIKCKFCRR
Kind of assay: Binding affinity against 5-hydroxytryptamine 1A receptor in rat cortex homogenates. It is filed as tissue-based.

In assay [6] the test system is 5-hydroxytryptamine receptor 1B (Oryctolagus cuniculus). Kind of assay: The vascular 5-hydroxytryptamine 1B receptor affinity was assessed using ring preparations of rabbit saphenous vein(RbSV).
The test system is the same in assay [7]. Kind of assay: The vascular 5-hydroxytryptamine 1B receptor affinity was assessed using ring preparations of rabbit saphenous vein (RbSV).

SMILES strings stand for the structures.

In the case of `CON(C)C(=O)c1[nH]c2ccc(CCN3C(=O)CNC3=O)cc2c1CCN(C)C`, the pKB came out at 5.3 in assay [1] and 5.76 in assay [2].
For `CN(C)CCc1c(C(=O)NCc2ccccc2N)[nH]c2ccc(CCN3C(=O)N(C)C(C)(c4ccccc4)C3=O)cc12` (stereo unspecified), the results for the pKB in assay [2] and in assay [3] were 6.64 and 4.78, respectively.
For `CN(C)CCc1c(C(=O)NCC(N)=O)[nH]c2ccc(CCN3C(=O)NC(C)(C)C3=O)cc12`, in assay [2], the pKB is less than 5.
`CN(C)CCc1c(C(=O)NCc2cccc(N)c2)[nH]c2ccc(CCN3C(=O)NC(C)(C)C3=O)cc12`: the results for the pKB in assay [2] and in assay [3] were 6.52 and 4.58, respectively.
For `CN(C)CCc1c(C(=O)NCc2cccc(NS(C)(=O)=O)c2)[nH]c2ccc(CCN3C(=O)NC(C)(C)C3=O)cc12` the same measures were 5.67 and 4.51.
Turning to `C#CCNC(=O)c1[nH]c2ccc(CCN3C(=O)NC(C)(C)C3=O)cc2c1CCN(C)C`, the negative-log KB (pKB) in assay [2] was 5.44; in assay [3] it was 4.62.
Regarding `CCOC(=O)c1[nH]c2ccc(CCN3C(=O)CNC3=O)cc2c1CCN(C)C`, the pKB in assay [1] is less than 5; in assay [2], 7.42; in assay [3], 5.43.
Consider `CN(C)CCc1c(C(=O)NCc2ccccc2)[nH]c2ccc(CCN3C(=O)NC(c4ccccc4)(c4ccccc4)C3=O)cc12`, for which the figures for the pKB in assay [2] and in assay [3] were 6.44 and 5, respectively.
On to `CN(C)CCc1c(C(=O)NCc2ccccc2)[nH]c2ccc(CCN3C(=O)CNC3=O)cc12`, for which the figures for the Ki in assay [4] and in assay [5] were 1.91 µM and 67.6 µM, respectively. Further, the pKB in assay [1] was determined as 6.09; in assay [2], 7.36; in assay [3], 5.77.
On to `CN(C)CCc1c(C(N)=O)[nH]c2ccc(CCN3C(=O)CNC3=O)cc12`, for which the negative logarithm of the KB (pKB) in assay [1] and in assay [2] was less than 5 each time.
As to `CCCCNC(=O)c1[nH]c2ccc(CCN3C(=O)CNC3=O)cc2c1CCN(C)C`, the pKB in assay [1] came out at 5.2; in assay [2] it was 5.94.
Take `CN(C)CCc1c(C(=O)NCc2ccc(S(C)(=O)=O)cc2)[nH]c2ccc(CCN3C(=O)NC(C)(C)C3=O)cc12`: the negative logarithm of the KB (pKB) is 5.91 in assay [2] and 4.52 in assay [3].
On to `CN(C)CCc1c(C(=O)Nc2ccccc2)[nH]c2ccc(CCN3C(=O)NC(C)(C)C3=O)cc12`, for which the pKB in assay [2] was 5.21; in assay [3] it was 4.86.
Take `CN(C)CCc1c(C(=O)NCc2ccc(Cl)cc2)[nH]c2ccc(CCN3C(=O)CNC3=O)cc12`: the pKB in assay [1] was 6.31; in assay [2], 7.74; in assay [3] it was 6.47.
Regarding `CCCCNC(=O)c1[nH]c2ccc(CCN3C(=O)NC(C)(C)C3=O)cc2c1CCN(C)C`, the pKB in assay [1] was less than 5; in assay [2] it was 5.47.
As to `CN(C)CCc1c(C(=O)N(C)Cc2ccccc2)[nH]c2ccc(CCN3C(=O)NC(C)(C)C3=O)cc12`, the values for the pKB in assay [1], in assay [2] and in assay [3] were 6.03, 5.8 and 5.8, respectively.
Turning to `COc1ccc(CNC(=O)c2[nH]c3ccc(CCN4C(=O)NC(C)(C)C4=O)cc3c2CCN(C)C)cc1`, the pKB in assay [3] stood at 4.73; in assay [6] it was 6.54.
In assay [2], `CN(C)CCc1c(C(=O)NCc2cccc(Cl)c2)[nH]c2ccc(CCN3C(=O)NC(C)(C)C3=O)cc12` displayed a pKB of 6.45.
Turning to `CC(=O)Nc1ccccc1CNC(=O)c1[nH]c2ccc(CCN3C(=O)NC(C)(C)C3=O)cc2c1CCN(C)C`, the pKB in assay [7] was 6.04; in assay [3], less than 5.
With `CN(C)CCc1c(C(=O)NCc2ccccc2N)[nH]c2ccc(CCN3C(=O)CNC3=O)cc12`, the pKB in assay [2] stood at 6.67; in assay [3], 5.73.
On the same counts, the results for `CN(C)CCc1c(C(=O)NCc2ccccc2)[nH]c2ccc(CCN3C(=O)C4CCCN4C3=O)cc12` (stereo unspecified) are 6.66 and 5.31.
On the same counts, the results for `CN(C)CCc1c(C(=O)NCc2ccccc2O)[nH]c2ccc(CCN3C(=O)NC(C)(C)C3=O)cc12` are 6.61 and 5.
Turning to `CN(C)CCc1c(C(=O)N(C)C)[nH]c2ccc(CCN3C(=O)CNC3=O)cc12`, the pKB in assay [1] and in assay [2] was less than 5 each time.
As to `CN(C)CCc1c(C(=O)NCc2ccc(-c3ccccc3)cc2)[nH]c2ccc(CCN3C(=O)NC(C)(C)C3=O)cc12`, the pKB is 5.77 in assay [2] and 5 in assay [3].
On to `CONC(=O)c1[nH]c2ccc(CCN3C(=O)NC(C)(C)C3=O)cc2c1CCN(C)C`, for which the negative logarithm of the KB (pKB) in assay [2] is 5.4; in assay [3], less than 4.5.
As to `CN(C)CCc1c(C(=O)NCc2ccc(Cl)cc2)[nH]c2ccc(CCN3C(=O)NC(C)(C)C3=O)cc12`, the results for the pKB in assay [2] and in assay [3] were 7.59 and 5.86, respectively.
For `CN(C)CCc1c(C(=O)NCc2ccccc2)[nH]c2ccc(CCN3C(=O)NC4(CCCC4)C3=O)cc12`, the pKB turned out to be 7.2 in assay [2] and 5.48 in assay [3].
As for `CN(C)CCc1c(C(=O)NCc2ccc(F)cc2)[nH]c2ccc(CCN3C(=O)NC(C)(C)C3=O)cc12`, the values for the pKB in assay [2] and in assay [3] were 7.3 and 5.46, respectively.
`CN(C)CCc1c(C(=O)NCc2ccccc2N)[nH]c2ccc(CCN3C(=O)NC(C)(c4ccccc4)C3=O)cc12` (stereo unspecified): the pKB in assay [2] worked out at 6.65; in assay [3], 5.21.
With `CN(C)CCc1c(C(=O)NCc2ccc(NS(C)(=O)=O)cc2)[nH]c2ccc(CCN3C(=O)NC(C)(C)C3=O)cc12`, the pKB in assay [2] was 5.65; in assay [3] it was less than 4.5.
For `CN(C)CCc1c(C(=O)NCc2ccccc2)[nH]c2ccc(CCN3C(=O)N(C)C(C)(c4ccccc4)C3=O)cc12` (stereo unspecified) the same measures were 7.19 and 5.5.
On to `CN(C)CCc1c(C(=O)NCc2ccccc2N)[nH]c2ccc(CCN3C(=O)NC(C)(C)C3=O)cc12`, for which the pKB in assay [2] came to 6.72; in assay [3] it was 4.79.
Take `CN(C)CCc1c(C(=O)NCc2ccccc2)[nH]c2ccc(CCN3C(=O)NC(C)(c4ccccc4)C3=O)cc12` (stereo unspecified): the pKB in assay [2] turned out to be 7.15; in assay [3], 5.27.
Regarding `CN(C)CCc1c(C(=O)NCc2ccc(N)cc2)[nH]c2ccc(CCN3C(=O)NC(C)(C)C3=O)cc12`, the results for the pKB in assay [2] and in assay [3] were 6.19 and 4.52, respectively.
As for `CN(C)CCc1c(C(=O)NCc2ccccc2)[nH]c2ccc(CCN3C(=O)NC(C)(C)C3=O)cc12`, the Ki in assay [4] was 2.19 µM; in assay [5] it was 14.8 µM. The pKB in assay [1] is 5.6; in assay [2] it was 7.09; in assay [3] it was 5.2.
On to `CN(C)CCc1c(C(=O)NCc2cccc3ccccc23)[nH]c2ccc(CCN3C(=O)NC(C)(C)C3=O)cc12`, for which, in assay [2], the negative logarithm of the KB (pKB) was 5.5.
As for `CC(=O)Nc1cccc(CNC(=O)c2[nH]c3ccc(CCN4C(=O)NC(C)(C)C4=O)cc3c2CCN(C)C)c1`, the pKB was determined as 5.68 in assay [2] and 4.5 in assay [3].
For `CN(C)CCc1c(C(=O)NCc2ccc(Cl)c(Cl)c2)[nH]c2ccc(CCN3C(=O)NC(C)(C)C3=O)cc12` the same measures were 6.5 and 5.
`CN(C)CCc1c(C(=O)NCc2ccccc2N)[nH]c2ccc(CCN3C(=O)NC(c4ccccc4)(c4ccccc4)C3=O)cc12`: the pKB amounted to 6.31 in assay [2] and 5.43 in assay [3].
`CC(NC(=O)c1[nH]c2ccc(CCN3C(=O)NC(C)(C)C3=O)cc2c1CCN(C)C)c1ccccc1` (stereo unspecified): the pKB in assay [1] worked out at 5.59; in assay [2] it was 5.5; in assay [3], 4.65.
For `CN(C)CCc1c(C(=O)NN)[nH]c2ccc(CCN3C(=O)NC(C)(C)C3=O)cc12`, the pKB in assay [2] was 5.48; in assay [3], less than 4.5.
With `CNC(=O)c1[nH]c2ccc(CCN3C(=O)CNC3=O)cc2c1CCN(C)C`, the pKB was less than 5 in assay [1] and 5.94 in assay [2].
As for `Cc1ccc(CNC(=O)c2[nH]c3ccc(CCN4C(=O)NC(C)(C)C4=O)cc3c2CCN(C)C)cc1`, the pKB stood at 7 in assay [2] and 6 in assay [3].
`CN(C)CCc1c(C(=O)NCc2ccc(C(F)(F)F)cc2)[nH]c2ccc(CCN3C(=O)NC(C)(C)C3=O)cc12`: the pKB in assay [2] was 6.2; in assay [3] it was less than 5.
Turning to `CN(C)CCc1c(C(=O)NCCc2ccccc2)[nH]c2ccc(CCN3C(=O)NC(C)(C)C3=O)cc12`, the pKB in assay [1] is 5.35; in assay [2], 5.57.
For the molecule `CN(C)CCc1c(C(=O)NCc2ccccc2Cl)[nH]c2ccc(CCN3C(=O)NC(C)(C)C3=O)cc12`, the negative logarithm of the KB (pKB) was 5.81 in assay [2] and 5.35 in assay [3].
As for `COc1cccc(CNC(=O)c2[nH]c3ccc(CCN4C(=O)NC(C)(C)C4=O)cc3c2CCN(C)C)c1`, the pKB in assay [2] stood at 6.47; in assay [3], 5.17.

Values taken from ChEMBL document CHEMBL1132291, “Synthesis and serotonergic activity of substituted 2, N-benzylcarboxamido-5-(2-ethyl-1-dioxoimidazolidinyl)-N, N-dimethyltryptamine derivatives: novel antagonists for the vascular 5-HT(1B)-like receptor” (J Med Chem, 1999).
